Results on one compound are retold here after patent US20050119224A1, “Use of n-acetyl-d-glucosamine in the manufacture of pharmaceutical useful for adjuvant treatment of perianal disease” (priority 2001, published 2005).

For one assay, the system named is Pseudomonas aeruginosa. As to the kind of experiment: Test of resistance to field planting (Pseudomonas aeruginosa planting model). Format: in vivo, Mice of Kunming Species. The conditions noted are these: three dosages (high, middle, low), infused abdominally each day, feces culture. The source says:
1. Animal: Mice of Kunming Species, Provided by the 3rd Military Medical University P.R. China.
Firstly, the animals used for experiment were infused abdominally with a suspension of Pseudomonas aeruginosa so as to make a Pseudomonas aeruginosa planting model, the mice that have Pseudomonas aeruginosa in the feces specimen cultured continuously for three days are deemed as positive. 32 mices which were positive in the experiment for making model were selected and divided into four groups, that is, three experimental groups with different dosages and one control group, eight mice in each group. The experimental groups are infused abdominally with N-acetyl-D glucosamine each day according to a schedule, while the control group is infused with saline solution. Cultivate the excrement every day, observe the saturation of Pseudomonas aeruginosa planting growth.

A further assay has as its system liver lysosome membrane. As to the kind of experiment: Test of stabilizing lysosome membrane (rat model of endotoxin shock). The conditions noted are these: rat with endotoxin shock, versus saline control. Format: in vivo, wistar rat. From the text: • 1. Animals: wistar rat, provided by the 3rd Military Medical University P.R. China. • 2. Method: setting up a rat model of endotoxin shock, at the same time, for the liver lysosome of rat, carry out a test of stabilizing membranes in vivo and in vitro. The model animals were divided into two groups, in the experimental group, N-acetyl-D-glucosamine was used to carry out the treatment, in the control group, saline solution was used to carry out the same treatment. The condition of liver lysosome mambrane was reflected by the activity of acidic phosphatase (ACP). • 3. Result: the activity of free ACP in the control group and that in the experimental group are obviously different. • 4. […] V. Human on Trial

Assay [1] is described as follows: Human on trial (clinic test, peri-anal diseases). It counts as in vivo. The conditions noted are these: pharmaceutical preparations made from the compound, humans suffering from peri-anal diseases.

As for `CC(=O)N[C@@H]1[C@@H](O)[C@H](O)[C@@H](CO)O[C@H]1O` [compound of formula (I), N-acetyl-D-glucosamine], the “resistance to Pseudomonas aeruginosa planting in intestines” value in the assay on Pseudomonas aeruginosa is recorded as “able to effectively resist Pseudomonas aeruginosa in intestines”. Besides, the “stabilization of liver lysosome membrane” value in the assay on liver lysosome membrane (in vivo and in vitro) is listed as “able to effectively stabilize liver lysosome membrane”. Also, in the assay with liver lysosome membrane (liver lysosome), the “release of acidic phosphatase (ACP)” value was “decrease the release of acidic phosphatase”. For the same compound, the “relief of peri-anal symptoms” value in assay [1] is “able to eliminate or relieve quickly the peri-anal uncomfortableness, pain, exudation, pruritus and the like”.
